The results in this text go back to article PMC7806782, “Tethering-induced destabilization and ATP-binding for tandem RRM domains of ALS-causing TDP-43 and hnRNPA1” (Scientific Reports, 2021).

What all share (test): 1H-15N HSQC NMR titration, one-site fit of chemical shift differences
Common to all, as to assay type: binding

Assay [1] has as its target T1, isolated hnRNPA1 RRM2 (94–184) (Homo sapiens, UniProt P09651).
T1 construct: printed as 90-residue

Assay [2] addresses T2, isolated TDP-43 RRM2 (191–269) (Homo sapiens, UniProt Q13148).
T2 construct: gene TARDBP
An excerpt:
1H-15N HSQC NMR titration, one-site fit of chemical shift differences on isolated TDP-43 RRM2 (191–269) | isolated RRM2 is also able to bind ATP to induce large shifts

Assay [3] concerns the target T3, tethered hnRNPA1 RRM1–RRM2 (5–184) (Homo sapiens, UniProt P09651).
T3 construct: ATP site in RRM2

T3 sequence (P09651 5-184): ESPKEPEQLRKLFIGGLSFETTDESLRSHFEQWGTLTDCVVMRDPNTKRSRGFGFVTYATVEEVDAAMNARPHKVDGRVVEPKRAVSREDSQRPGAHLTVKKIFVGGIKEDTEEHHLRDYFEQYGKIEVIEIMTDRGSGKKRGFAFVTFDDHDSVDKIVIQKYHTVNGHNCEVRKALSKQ
T1 sequence (P09651 94-184): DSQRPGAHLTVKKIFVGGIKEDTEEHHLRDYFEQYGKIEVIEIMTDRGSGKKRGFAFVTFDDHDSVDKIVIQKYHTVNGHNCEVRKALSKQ
T2 sequence (Q13148 191-269): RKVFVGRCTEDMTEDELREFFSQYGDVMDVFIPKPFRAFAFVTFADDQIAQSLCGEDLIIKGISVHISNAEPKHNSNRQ

For `Nc1ncnc2c1ncn2[C@@H]1O[C@H](COP(=O)(O)OP(=O)(O)OP(=O)(O)O)[C@@H](O)[C@H]1O` [ATP], the Kd (in general, the constant that tells how readily two partners part at equilibrium) in assay [1] amounted to 7.7 mM; in assay [2], 16.7 ± 0.9 mM; in assay [3] it was 4.9 mM.
